PMC11051159, “Green Synthesis of Gold Nanoparticles Using Liquiritin and Other Phenolics from Glycyrrhiza glabra and Their Anti-Inflammatory Activity” (Journal of Functional Biomaterials, 2024)
In brackets after ≈: the same amount, converted by molar mass. Where two headings read alike, the source gives them in different places.

Experiments:
[1] = test system: NO production, RAW 264.7 cells; test: Nitric oxide (NO) assay (Griess reaction); assay type: cell-based, murine; settings: for IC50: Mus musculus, RAW264.7, RAW 264.7, 1 μg/mL LPS, pure compound, ± SEM, read-out: Approximate NO IC50, +LPS, Comp.; for concentration at which NO production / inflammatory activity was reduced: non-toxic concentrations
Method: (§1) The RAW 264.7 cells were seeded at 1 × 10^6 cells/mL in 96-well tissue culture-treated plates for cell viability and nitric oxide assays. The seeded cells were incubated under standard tissue culture conditions at 37 °C in a humidified atmosphere of 5% CO2 for approximately 24 h until the cells reached 70–80% confluence. The cells were subsequently exposed to the relevant AuNP conjugates, total extract, or compounds. After that, the cells were either left unstimulated or stimulated with 1 μg/mL lipopolysaccharide (LPS, from E. coli O111:B4, Sigma-Aldrich) to yield a final concentration range of 0–100 μg/mL of the appropriate treatment. The cells were then incubated overnight under standard tissue culture conditions.
In the initial development of the assay, polymyxin inhibition of LPS inflammatory activity was checked. Polymyxin was established to inhibit LPS-induced inflammatory activity in macrophage cultures. Cell culture supernatants were removed after the overnight incubation with the relevant treatment. They were used to determine the amount of nitrite produced by the cells and used as an indication of NO production. The amount of NO produced was determined against a 0–100 μM nitrite standard range (Sigma-Aldrich). Culture supernatants or nitrite standard (50 μL) were mixed with 50 μL of Griess reagent (Sigma-Aldrich). The absorbance was subsequently read spectrophotometrically at 540 nm (Multiskan Ex, Thermo Electron Corporation, Vantaa, Finland), and the amount of NO produced by the cells was quantified. NO levels were not determined at cytotoxic concentrations.
The NO assay based on the Griess reaction was used to assess the production of NO from the RAW cells after the exposure to the NP extract/pure compounds in either the absence or presence of LPS.

[2] = test system: PC12 cells; set-up: method as in PMID 19789989; settings: PC12 cells in the presence of neuronal growth factor, 3- and 5-day periods; cited from earlier work
[3] = test system: human liver cells, HepG2; set-up: method as in PMID 31956937; settings: concentrations ≥ 120 μM, 24 hrs; cited from earlier work
[4] = test system: RAW 264.7 cells; test: Cell viability assay (WST-1); assay type: cell-based, murine; settings: for IC50: Mus musculus; for concentration at which cell viability was significantly decreased (cytotoxic): range tested 0–100 μg/mL; for effect on cell viability (in words): 0–100 μg/mL
Method: as §1
(§2) The supernatants were removed after incubation, and cells were washed with phosphate-buffered saline (PBS, Lonza). Cell viability was assessed by adding 50 μL of a 1/10 dilution of 2-(4-iodophenyl)-3-(4-nitrophenyl)-5-(2,4-disulfophenyl)-2H-tetrazolium (WST-1, Roche, Basel, Switzerland) in complete DMEM medium to each well. Metabolically active cells convert the WST-1 reagent to a formazan that can be measured spectrophotometrically. Formazan formation was determined by reading the plate at 450 nm immediately after adding WST-1 and again after an incubation period of 1 h at 37 °C. The increase in absorbance is proportional to formazan formation and directly proportional to cell viability. The difference between the zero-absorbance reading and 1 hr incubation was used to calculate the percentage of cell viability. Cell viability was calculated as a percentage of the control using the below formula:(1) Cell viability as a % of Control=T1−T0/U1−U0×100 where T1 is the absorbance of the treated sample after 1 h, T0 is the absorbance of the treated at 0 h, U1 is the absorbance of the untreated sample after 1h, and U0 is the absorbance of the untreated sample at 0 h.

[5] = test system: RAW 264.7 cell; set-up: method as in PMID 18295200, PMID 25871879; settings: 0–1.6 μM or 0–200 μM, 24 h; cited from earlier work
[6] = test system: B65 neuroblastomas; set-up: method as in PMID 28970010; settings: after 48 h; cited from earlier work
[7] = Cell viability assay (WST-1); assay type: cell-based, murine; settings: mouse, RAW 264.7 cells; −LPS, at concentrations ≥ 50 μg/mL; read-out: percentage of viable cells
Method: as §1, §2

[8] = RAW 264.7, absence of LPS (basal)
[9] = RAW264.7, RAW 264.7, 1 μg/mL LPS, pure compound/extract, overnight exposure, ± SEM, read-out: Approximate cell viability IC50, +LPS, Comp.
[10] = RAW264.7, RAW 264.7, unstimulated (−LPS), pure compound/extract, overnight exposure, ± SEM, read-out: Approximate cell viability IC50, −LPS, Comp.

**Q.** For `O=C1C[C@@H](c2ccc(O[C@@H]3O[C@H](CO)[C@@H](O)[C@H](O)[C@H]3O)cc2)Oc2cc(O)ccc21` [Comp. 1, liquiritin], which IC50 [1] is on record?
**A.** ~16.5 µg/mL (≈ 39.4 µM)

**Q.** And the “effect on NO secretion (in words)” value [1, 8]?
**A.** did not elicit NO secretion

**Q.** And the “effect on NO secretion (in words)” value ([1]; RAW 264.7, presence of LPS)?
**A.** inhibited NO secretion

**Q.** What about the “concentration at which NO production / inflammatory activity was reduced” value ([1]; RAW 264.7, presence of LPS, listed as Compound 1) of the same molecule?
**A.** 25 µg/mL

**Q.** What about the “concentration at which NO production / inflammatory activity was reduced” value ([1]; RAW 264.7, presence of LPS, listed as liquiritin) of the same molecule?
**A.** ≥ 25 µg/mL

**Q.** What about the “concentration at which cell viability decreased” value [2] of the same molecule?
**A.** ≥ 50 µg/mL

**Q.** What about the HepG2 viability [3] of the same molecule?
**A.** below 40%

**Q.** And the IC50 [4, 9]?
**A.** ~60.5 µg/mL (≈ 145 µM)

**Q.** What about the IC50 [4, 10] of the same molecule?
**A.** ~39.7 µg/mL (≈ 94.9 µM)

**Q.** What about the “concentration at which cell viability was significantly decreased (cytotoxic)” value [4, 8] of the same molecule?
**A.** 50 to 100 µg/mL

**Q.** What about the “concentration at which cell viability was significantly decreased (cytotoxic)” value ([4]; RAW 264.7, absence of LPS (basal), listed as liquiritin (1)) of the same molecule?
**A.** ≥ 50 µg/mL

**Q.** What about the “concentration at which cell viability was significantly decreased (cytotoxic)” value ([4]; RAW 264.7, presence of LPS) of the same molecule?
**A.** 50 to 100 µg/mL

**Q.** For `O=C(/C=C/c1ccc(O[C@@H]2O[C@H](CO)[C@@H](O)[C@H](O)[C@H]2O)cc1)c1ccc(O)cc1O` [Comp. 2, isoliquiritin], which “effect on RAW 264.7 cell viability (in words)” value [5] is on record?
**A.** not affected

**Q.** And the “effect on NO secretion (in words)” value [1, 8]?
**A.** did not affect the level of NO

**Q.** And the “concentration at which viability was reduced” value [6]?
**A.** 100 µM

**Q.** What about the “concentration at which cell viability was significantly decreased (cytotoxic)” value [4, 8] of the same molecule?
**A.** 100 µg/mL

**Q.** What about the “effect on cell viability (in words)” value ([4]; RAW 264.7, presence of LPS) of the same molecule?
**A.** no cytotoxicity was exhibited

**Q.** What about the “effect on cell viability (in words)” value ([4]; RAW 264.7, presence of LPS, listed as Isoliquiritin (2)) of the same molecule?
**A.** no effect on viability

**Q.** What about the “effect on cell viability (in words)” value ([4]; RAW 264.7, presence of LPS, listed as isoliquiritin (2)) of the same molecule?
**A.** did not hinder cell proliferation

**Q.** For `O=C(/C=C/c1ccc(O)cc1)c1ccc(O[C@@H]2O[C@H](CO)[C@@H](O)[C@H](O)[C@H]2O)cc1O` [Comp. 3, neoisoliquiritin], which “effect on NO secretion (in words)” value [1, 8] is on record?
**A.** did not affect the level of NO

**Q.** What about the “effect on NO secretion (in words)” value ([1]; RAW 264.7, presence of LPS) of the same molecule?
**A.** did not affect the level of NO

**Q.** With `CC1(C)C=Cc2c(ccc3c2OC[C@@H](c2ccc(O)cc2O)C3)O1` [Comp. 6, glabridin] as the molecule, how does the IC50 [1] read?
**A.** ~27.5 µg/mL (≈ 84.8 µM)

**Q.** What about the “effect on NO secretion (in words)” value [1, 8] of the same molecule?
**A.** did not affect NO production

**Q.** And the “effect on NO secretion (in words)” value ([1]; RAW 264.7, presence of LPS)?
**A.** inhibited NO secretion

**Q.** What about the “concentration at which NO production / inflammatory activity was reduced” value ([1]; RAW 264.7, presence of LPS) of the same molecule?
**A.** ≥ 12.5 µg/mL

**Q.** What about the percentage viability ([4]; +LPS, at concentrations ≥ 25 μg/mL) of the same molecule?
**A.** 65 to 9%

**Q.** And the IC50 [4, 9]?
**A.** ~27.2 µg/mL (≈ 83.9 µM)

**Q.** What about the IC50 [4, 10] of the same molecule?
**A.** ~28.4 µg/mL (≈ 87.6 µM)

**Q.** What about the “concentration at which toxicity was seen” value ([4]; RAW 264.7, LPS status not stated) of the same molecule?
**A.** > 25 µg/mL

**Q.** And the “concentration at which cell viability was significantly decreased (cytotoxic)” value [4, 8]?
**A.** ≥ 50 µg/mL

**Q.** What about the “concentration at which cell viability was significantly decreased (cytotoxic)” value ([4]; RAW 264.7, presence of LPS) of the same molecule?
**A.** ≥ 25 µg/mL

**Q.** What about the viability [7] of the same molecule?
**A.** ≤ 30%

**Q.** Which “effect on NO secretion (in words)” value [1, 8] does the source give for isoliquiritin apioside [Comp. 4] here?
**A.** did not elicit an inflammatory response

**Q.** What about the “effect on NO secretion (in words)” value ([1]; RAW 264.7, presence of LPS) of the same molecule?
**A.** did not impact NO secretion

**Q.** What about the “cell viability reduced to” value ([4]; +LPS, 25 μg/mL) of the same molecule?
**A.** 60%

**Q.** What about the “cell viability reduced to” value ([4]; +LPS, 50 μg/mL) of the same molecule?
**A.** 70%

**Q.** For liquiritin apioside [Comp. 5], which “concentration at which cell viability was increased (mitogenic effect)” value ([4]; RAW 264.7, presence of LPS) is on record?
**A.** 25 µg/mL

**Q.** And the “Approximate cell viability IC50, −LPS, Comp.” value ([4]; RAW 264.7, unstimulated (−LPS), pure compound/extract, overnight exposure, ± SEM)?
**A.** 47.8 ± 0.2 µg/mL

**Q.** And the “cell viability reduced to” value ([4]; −LPS, 100 μg/mL)?
**A.** 40%

**Q.** What about the “reduction of cell viability” value ([4]; −LPS, at concentrations ≥ 50 μg/mL) of the same molecule?
**A.** 40%
